Measurements reported in patent publication US20240316079A1, “USE OF AKR1C3-ACTIVATED COMPOUND” (OBI PHARMA, INC., priority 2021, published 2024).
Like-named read-outs stand apart in the source and are kept apart here.

Tests used:
[1] = test system: HepG2 orthotopic xenograft; assay type: in vivo, mice; conditions: for TGI: Day 34
Procedure: (§1) In vivo anti-tumor activity of 3424 was evaluated using GFP-expressing cancer cell lines in an orthotopic liver cancer model (HepG2) and a subcutaneous lung cancer model (H460) CDX models at AntiCancer, Inc (Beijing, China). Female athymic nude mice (6 weeks; BALB/c-nu, Beijing HFK Bioscience Co., Ltd., Beijing, China) were used in the studies. Each mouse was implanted with a HepG2-GFP tumor chunk (˜1 mm^3 in diameter) in the right lobe of the liver for tumor development or inoculated subcutaneously with H460-GFP tumor chunk (˜1 mm^3 in diameter). About 3-10 days later, whole mouse body scan was performed using FluorVivo Model-100 fluorescence imager (INDEC Biosystems, Inc., Los Altos, CA). Mice with similar fluorescent areas were selected and randomly grouped. Both cell lines expressed high level of AKR1C3. Prodrug 3424 was dosed intravenously (IV) at 1.25, 2.5 mg/kg or 5 mg/kg Q7D×2 for the HepG2 orthotopic model or at 0.625, 1.25 or 2.5 mg/kg for the H460 xenograft model with a regimen of Q7D×2, 1 week off, then Q7D×2 again. Sorafenib was used as the positive control in the HepG2 model and was dosed orally at 30 mg/kg with a regimen of QD×5×7 cycles. Taxol was used as the positive control in the H460 model and was administered at 15 mg/kg IV with a regimen of BIW×4. During the experiments, mice were observed daily and body weight was measured twice a week. Tumor burden was monitored twice a week either by caliper measurement (H460) or FluorVivo fluorescence imager (H460-GFP and HepG2-GFP).

[2] = test system: H460 subcutaneous xenograft; assay type: in vivo, mice; conditions: 1 week off, Q7D × 2
Procedure: as §1

HLF = test: In vitro proliferation assay, liver cancer cell line HLF; assay type: cell-based; conditions: Homo sapiens, 96 hours of drug exposure, AKR1C3 protein Low, read-out: 3424 IC50
Procedure: (§2) IC50 was calculated as described above.

NCI-H522 = test: In vitro proliferation assay, NSCLC cell line NCI-H522; assay type: cell-based; conditions: Homo sapiens, 72 hours of drug exposure, read-out: 3424 IC50
Procedure: as §2

CAL12T = test: In vitro proliferation assay, NSCLC cell line CAL12T; assay type: cell-based; conditions: Homo sapiens, CAL-12T, 72 hours of drug exposure, read-out: 3424 IC50
Procedure: as §2

LU2057 PDX = test: Lung cancer PDX model LU2057 (low AKR1C3); assay type: in vivo, mice
Procedure: (§3) Anti-tumor activity of 3424 in PDX models was assessed at CrownBio Bioscience (Beijing, China) Inc. using female BALB/c nude mice (6-7 weeks old, Beijing Anikeeper Biotech Co., Ltd, Beijing, China). Tumor fragments (PA1280, GA6201, LU2057 and LU2505) from stock mice inoculated with selected primary human cancer tissues (pancreatic, gastric cancer, and lung) were harvested and used for inoculation into BALB/c nude mice. Each mouse was inoculated subcutaneously for tumor development. Mice were allocated randomly into experimental groups when the average tumor size reached ˜100 mm^3) by using StudyDirector™ Ver 3.1.399.19 (Studylog Systems, Inc., S. San Francisco, CA, USA). Prodrug 3424 was administered IV at the indicated doses with a regimen of Q7D×3. Each group consisted of 5-6 mice. The grouping day was denoted as Day 0. Prodrug 3424 was administrated to the tumor-bearing mice from Day 0 through Days as indicated for each study.

GA6201 PDX = test: Gastric cancer PDX model GA6201; assay type: in vivo, mice
Procedure: as §3

VCaP xenograft = test: Castration-resistant prostate cancer VCaP xenograft model
Procedure: (§4) Death and observed clinical signs were recorded on the basis of the numbers of animals within each subset.

NCIH1755 = test: In vitro proliferation assay, NSCLC cell line NCIH1755; assay type: cell-based; conditions: Homo sapiens, NCI-H1755, 72 hours of drug exposure, read-out: 3424 IC50
Procedure: as §2

SK-HEP-1 = test: In vitro proliferation assay, liver cancer cell line SK-HEP-1; assay type: cell-based; conditions: Homo sapiens, SK-HEP1, 96 hours of drug exposure, AKR1C3 protein Low, read-out: 3424 IC50
Procedure: as §2

NCIH2106 = test: In vitro proliferation assay, NSCLC cell line NCIH2106; assay type: cell-based; conditions: Homo sapiens, 72 hours of drug exposure, read-out: 3424 IC50
Procedure: as §2

SNU-387 = test: In vitro proliferation assay, liver cancer cell line SNU-387; assay type: cell-based; conditions: Homo sapiens, 96 hours of drug exposure, AKR1C3 protein Medium, read-out: 3424 IC50
Procedure: as §2

SNU-16 xenograft = test system: SNU-16 xenograft
Procedure: as §4

A498 xenograft = test system: A498 xenograft
Procedure: as §4

SNU-449 = test: In vitro proliferation assay, liver cancer cell line SNU-449; assay type: cell-based; conditions: Homo sapiens, 96 hours of drug exposure, AKR1C3 protein high, read-out: 3424 IC50
Procedure: as §2

C3A = test: In vitro proliferation assay, liver cancer cell line C3A; assay type: cell-based; conditions: Homo sapiens, 96 hours of drug exposure, AKR1C3 protein high, read-out: 3424 IC50
Procedure: as §2

NCI-H1944 = test: In vitro proliferation assay, NSCLC cell line NCI-H1944; assay type: cell-based; conditions: Homo sapiens, 72 hours of drug exposure, read-out: 3424 IC50
Procedure: as §2

SNU-398 = test: In vitro proliferation assay, liver cancer cell line SNU-398; assay type: cell-based; conditions: Homo sapiens, 96 hours of drug exposure, AKR1C3 protein Low, read-out: 3424 IC50
Procedure: as §2

[3] = 3424 2.5 mg/kg weekly IV for 4 doses

In the case of `C[C@H](OP(=O)(N1CC1)N1CC1)c1ccc([N+](=O)[O-])c(Oc2cccc(C(=O)N(C)C)c2)c1` [Compound 3424, (S)-1-(3-(3-N,N-dimethylaminocarbonyl)phenoxyl-4-mtrophenyl)-1-ethyl-N,N′-bis(ethylene)phosphoramidate], the TGI ([1]; 3424 1.25 mg/kg i.v. Q7D × 2) is reported as 52.4%, the complete regression rate ([1]; 3424 2.5 mg/kg i.v. Q7D × 2) is reported as 80% and the TGI ([1]; 3424 2.5 mg/kg i.v. Q7D × 2) is reported as 91.5%. For the same compound, the complete regression rate ([1]; 3424 5 mg/kg i.v. Q7D × 2) was 100%, the TGI ([1]; 3424 5 mg/kg i.v. Q7D × 2) was 101.2% and the body weight loss ([1]; mouse, in vivo) was “no body weight loss”. For the same compound, the TGI ([2]; 3424 0.625 mg/kg i.v. Q7D × 2) was 60.2%, the TGI ([2]; 3424 1.25 mg/kg i.v. Q7D × 2) was 67.2% and the TGI ([2]; 3424 2.5 mg/kg i.v. Q7D × 2, 2.5 mg/kg) was 88%. For the same compound, the IC50 (HLF) was over 1000 nM, the IC50 (NCI-H522) was over 1000 nM and the IC50 (CAL12T) was 29.1 nM. For the same compound, the TGI (LU2057 PDX; 3424 2.5 mg/kg i.v. Q7D × 3) was −20.9%, the “tolerability / body weight loss” value (LU2057 PDX; LU2057, all tested doses) was “no body weight loss” and the TGI (GA6201 PDX; 3424 5 mg/kg i.v. Q7D × 3) was 110%. The “mice remaining tumor free” value (GA6201 PDX; 3424 5 mg/kg, at the end of the study) was 60%, the “tolerability / body weight loss” value (GA6201 PDX; GA6201, all tested doses) was “no body weight loss” and the TGI (VCaP xenograft; 3424 5 mg/kg weekly IV for 5 doses, castrated male BALB/c nude mice) was 148%. The “tolerability / body weight loss during treatment” value (VCaP xenograft; VCaP model, data not shown) was “no significant body weight loss”, the IC50 (NCIH1755) was 8.2 nM and the IC50 (SK-HEP-1) was over 1000 nM. It also gave an IC50 (NCIH2106) of over 1000 nM, an IC50 (SNU-387) of 103 nM and a TGI (SNU-16 xenograft; [3]) of 87.8%. The TGI (SNU-16 xenograft; 3424 5 mg/kg weekly IV for 4 doses) was 96.2%, the “tolerability / body weight loss during treatment” value (SNU-16 xenograft; SNU-16 model, data not shown) was “no significant body weight loss” and the TGI (A498 xenograft; [3]) was 73%. For the same compound, the “tolerability / body weight loss during treatment” value (A498 xenograft; A498 model, data not shown) was “no significant body weight loss”, the IC50 (SNU-449) was 45 nM and the IC50 (C3A) was 5 nM. For the same compound, the IC50 (NCI-H1944) was 2.3 nM and the IC50 (SNU-398) was over 1000 nM.
